Measurements published in patent publication US20030194434A1, “Bubbling tablet, bubbling bath additive tablet, bubbling washing detergent tablet, bubbling tablet for oral administration, and process for producing these” (priority 2000, published 2003).

Experiment: Kinetic viscosity of saccharide solution, Ubbelohde viscosimeter, Japanese Pharmacopoeia 13th edition
Format: physicochemical
Conditions: 0.5 g of component dissolved in 50 ml of water (25° C.)
Procedure: The value shown after each component in parenthesis is the kinetic viscosity of the solution in which 0.5 g of each component is dissolved in 50 ml of water (25° C.).

Row | SMILES | kinetic viscosity [cSt]
1 | OC[C@@H](O)[C@@H](O)[C@H](O)[C@H](O)CO [mannitol] | 0.896
2 | OC[C@@H](O)[C@@H](O[C@H]1O[C@H](CO)[C@@H](O)[C@H](O)[C@H]1O)[C@H](O)[C@@H](O)CO [maltitol] | 0.904
3 | OC[C@@H](O)[C@@H](O)[C@H](O)[C@@H](O)CO [sorbitol] | 0.897

More lines, now with the values ahead:

Row | kinetic viscosity [cSt] | SMILES
4 | 0.891 | OC[C@H]1O[C@H](O[C@H]2O[C@H](CO)[C@@H](O)[C@H](O)[C@H]2O)[C@H](O)[C@@H](O)[C@@H]1O [trehalose]
5 | 0.904 | OC[C@@H](O)[C@H](O)[C@@H](O)CO [xylitol]
6 | 0.912 | OC[C@H]1O[C@@](CO)(O[C@H]2O[C@H](CO)[C@@H](O)[C@H](O)[C@H]2O)[C@@H](O)[C@@H]1O [sucrose]
